In patent US20070149916A1, “Dry matrices as drug reservoirs in electrotransport applications” (ALZA CORPORATION, priority 2005, published 2007):

What was measured:
[1] = transdermal electrotransport, FIGS. 5A and 5B
[2] = aqueous solutions of apomorphine; cited from earlier work
[3] = Stability of apomorphine in aqueous solution and in PEO matrices; assay type: physicochemical; settings: PEO films cast using 2:1 acetonitrile:methanol; low formate or non-radiation crosslinked PEO; FIG. 4
[4] = Stability of hydrocortisone hemisuccinate in PVOH hydrogels and PEO matrices (HPLC); assay type: physicochemical
Experimental: The stability of hydrocortisone hemisuccinate (HCHS), a hydrolytically unstable compound that forms hydrocortisone and succinic acid via hydrolysis, in PVOH hydrogels and PEO matrices was investigated.
In a separate set of experiments (FIGS. 3A and 3B), the stability of HCHS in PVOH hydrogels and PEO matrices was examined at 23° C. and 40° C. over a period of three days.

Row | Compound | in vitro flux in PEO films compared with PVOH hydrogels [1] | time to rapid oxidation in aqueous solutions [2] | time over which formulations containing PEO were stable [3] | stability of HCHS in PEO matrices vs PVOH hydrogels ([4]; 40° C., over a period of three days, FIGS. 3A and 3B) | stability of HCHS in PEO matrix compared with PVOH hydrogel (HPLC chromatogram) ([4]; PEO film made using acetonitrile as the solvent vs PVOH hydrogel, FIG. 2)
1 | CN1CCc2cccc3c2[C@H]1Cc1ccc(O)c(O)c1-3 [apomorphine] | comparable | less than 30 minutes | up to 4 weeks | – | –
2 | hydrocortisone hemisuccinate [HCHS] | – | – | – | Improved stability | more stable in the PEO matrix than in the PVOH hydrogel
